Data published in US9938560B2, “Methods for identifying modulators of Ras using nonlinear techniques” (Biodesy, Inc., priority 2012, dated 2018).

Key:
wt H-Ras = target: T1, wt H-Ras (Homo sapiens, UniProt P01112); assay: SHG detection of conformational change of labeled wt H-Ras tethered to a supported lipid bilayer; type: binding; details: cysteine-labeled H-Ras, serial dilutions, n=3; read-out: EC50 from SHG concentration response curve
T1 construct: fused on or other part: N-terminal 6x histidine tag, used to tether to Ni-NTA lipids; PyMPO-maleimide dye on native cysteine(s)
T1 sequence (P01112 whole entry, the tested form may be a part): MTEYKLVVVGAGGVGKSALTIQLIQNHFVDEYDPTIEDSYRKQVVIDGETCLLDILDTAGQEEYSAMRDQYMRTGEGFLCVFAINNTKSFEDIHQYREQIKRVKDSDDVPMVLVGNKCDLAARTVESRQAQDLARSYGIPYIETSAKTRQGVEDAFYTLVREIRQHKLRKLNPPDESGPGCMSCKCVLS
Method: Recombinant His-tagged (N-terminus) H-Ras protein was prepared according to standard protocols (6). The Ras protein prepared according to this protocol is bound to GDP. The protein was then labeled with PyMPO-maleimide, a cysteine-reactive dye in 0.1 M Tris pH 8.0, 20 mM NaCl, 0.5 mM TCEP, 5% glycerol and a 12:1 dye:protein ratio for one hour at room temperature. Unreacted dye was purified away by gel filtration. The resulting dye:protein ratio was 0.7:1 was determined spectrophotometrically. Cysteine-labeled Ras was then coupled directly to the membrane.
We labeled Ras using a standard protocol in pH 8.3 sodium bicarbonate buffer (Invitrogen, Inc.) and purified it by gel filtration and dialysis. Amine-labeled Ras was then coupled directly to the membrane.
Immediately before applying DOPC/DGS NTA (Ni) lipids, microscope slides were cleaned with Piranha wash for 20 minutes. […] Lateral mobility of the bilayers was confirmed by fluorescence recovery after photobleaching as known in the art. […]
PyMPO-SE was coupled to His-tagged wt K-Ras (Novus) using one of two protocols. […] The resulting dye:protein ratio was 0.7:1 as determined spectrophotometrically. […]
PyMPO-SE exposed to a blank bilayer (no protein) followed by washing led to no signal above background. Thus, the signal detected in the presence of protein after labeling is due to labeling of the protein itself while immobilized on the membrane. […]

G12V K-Ras = target: T2, G12V K-Ras (Homo sapiens, UniProt P01116, G12V); assay: SHG detection of structural change of constitutively active G12V K-Ras; type: binding; details: 10 μM; PyMPO-maleimide at Cys 118; FIG. 6B
T2 construct: made in house
T2 sequence (P01116 1-188 isoform P01116-2 G12V): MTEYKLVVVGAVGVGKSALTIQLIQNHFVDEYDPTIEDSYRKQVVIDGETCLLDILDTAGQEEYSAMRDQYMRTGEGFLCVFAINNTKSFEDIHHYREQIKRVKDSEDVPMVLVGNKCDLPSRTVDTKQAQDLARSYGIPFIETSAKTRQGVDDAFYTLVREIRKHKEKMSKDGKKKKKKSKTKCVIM
Method: PyMPO-SE is coupled to a G12V constitutively active mutant K-Ras (Abrams et al., Semin Oncol. 1996 February; 23(1):118-34) using one of the two protocols described in Example 3 above. Recombinant His-tagged (N-terminus) Ras proteins are prepared according to standard protocols (Hall et al., 2002, Proc. Nat. Acad. Sci., U.S.A., 99(19):12138-42). The Ras proteins prepared according to this protocol is bound to an SHG-active GTP analog (ATTO-390-GTP) or an SHG label is coupled to Cys 118 with PyMPO-maleimide, a cysteine-reactive dye in 0.1 M Tris pH 8.0, 20 mM NaCl, 0.5 mM TCEP, 5% glycerol and a 12:1 dye:protein ratio for one hour at room temperature. Unreacted dye is purified away by gel filtration. The resulting dye:protein ratio is determined spectrophotometrically.
Immobilized G12V mutant K-Ras is then exposed to compound 117028, which has been previously shown to decrease intracellular levels of GTP-bound K-RAS as well as to decrease activation of the Raf/Mek/Erk signaling pathway (Grant et al., 2011, PLoS One, 6(10):e25711, the disclosure of which is incorporated by reference herein). 10 μM of the compound in assay buffer is added over the wells followed by gentle mixing. Assay buffer was 20 mM Tris pH 8.0, 150 mM NaCl, 0.5 mM DTT, 0.15% DMSO. […]

GTP-bound K-RAS = GTP-bound K-RAS (Homo sapiens, UniProt P01116); details: previously shown, Grant et al., 2011; cited from earlier work
Sequence of GTP-bound K-RAS (P01116 1-188 isoform P01116-2): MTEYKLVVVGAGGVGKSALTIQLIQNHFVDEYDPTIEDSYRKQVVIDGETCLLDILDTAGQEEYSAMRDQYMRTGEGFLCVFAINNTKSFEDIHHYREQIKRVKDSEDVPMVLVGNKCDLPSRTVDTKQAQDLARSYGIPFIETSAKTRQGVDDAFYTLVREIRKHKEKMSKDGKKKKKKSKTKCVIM

[1] = tested on: Raf/Mek/Erk signaling pathway; details: previously shown, Grant et al., 2011; cited from earlier work
Protein X [2] = assay: SHG (Biodesy) titration of ligands on Protein X bound to a supported lipid bilayer; type: binding; details: Protein X on SLB; endpoint mode after 3 minutes of exposure; average of different days
Method: PyMPO-SE is coupled to His-tagged Protein X using the protocol described in the above Examples. Unreacted dye is purified by gel filtration. The resulting dye:protein ratio is determined spectrophotometrically. The supported bilayer membrane with Ni-NTA lipid is prepared as described in the Examples above. Recombinant His-tagged Protein X is incubated with the lipid bilayer at 5 μM for 20 minutes to produce a baseline signal following wash-out of unbound Protein X. A single ligand (denoted 3, 4 or 5) is exposed to Protein X on the surface and changes to the baseline SHG signal are measured in real time. A titration of the shift in SHG signal for each of the ligands as a function of ligand concentration is performed in endpoint mode, comparing the SHG signal after 3 minutes of exposure to the ligand at a given concentration to the baseline signal before exposure to the ligand.

Protein X [3] = assay: Biacore binding to Protein X
Protein X [4] = assay: IC50 result for Protein X (independent biochemical assay)

EC50 (wt H-Ras) [µM] | effect on the conformation of G12V K-Ras (SHG), protein labeled at Cys 118 (G12V K-Ras) | SMILES | intracellular levels of GTP-bound K-RAS (GTP-bound K-RAS) | activation of the Raf/Mek/Erk signaling pathway [1] | EC50 (Protein X [2]) [µM] | Biacore Result (Protein X [3]) | IC50 (Protein X [4]) [µM]
4.4 | significant effect | Oc1c(CN2CCN(c3ccccc3)CC2)cc(Br)c2cccnc12 [Compound 1, 5-bromo-7-[(4-phenylpiperazin-1-yl)methyl]quinolin-8-ol] | decrease | decrease | – | – | –
– | – | O=C(CN1CCOCC1)NC1=Nc2ncccc2C(=O)NN1 [Compound 3] | – | – | 0.67 | Binds | 0.95
